Source: patent publication US12226494B2, “Pharmaceutical compositions comprising Gd-complexes and polyarylene additives” (BRACCO IMAGING S.P.A., priority 2018, dated 2025)
Entries after “also recorded” stand apart in the source; their conditions may differ.

Experiments:
[1] = Proton Relaxation Enhancement (PRE) titration of ProHance with polyarylenes and reference compounds: Ka and Rb; assay type: binding; settings: for Rb/r1p: adduct with ProHance relative to free ProHance; for Ka: interaction with ProHance (1 mM), Hepes/NaCl; for Ka / Rb: T = 25° C., 21.5 MHz, pH = 7.0 ± 0.1; for Rb: relaxivity of the adduct with ProHance at saturation
Procedure: (§1) This method consists in measuring the variation in the longitudinal proton Relaxation Rates (R1=1/T1) of the paramagnetic solutions upon increasing the concentration of the interacting substrate. […] To this end, solutions of the Gd-complexes (1 mM) were titrated with the polyarylenes compounds and non-hydrophobic reference compounds (in the concentration range 1-40 mM, leading to the saturation of the contrast agent), at 21.5 MHz and 298 K, in Hepes/NaCl buffer solution ([hepes]=3.8 mM, [NaCl]=150 mM) at pH 7.0-7.2.
(§2) The reproducibility of the T data was ±0.5%.
The least-squares fit of the R1 versus substrate concentration binding isotherms (FIGS. 4 and 5) enabled us to calculate the affinity constants and the relaxivities of the adducts reported in tables 2 and 3 below.
Other aromatic-containing structures, beside HPTS, were considered for the interaction.

[2] = Longitudinal relaxivity r1p of the free Gd-complex (relaxometry, 21.5 MHz); assay type: physicochemical; settings: T = 25° C., B0 = 21.5 MHz, pH = 7.0 ± 0.1
Procedure: as §1, §2

[3] = Proton Relaxation Enhancement (PRE) titration of Gd-complexes (GBCA) with HPTS: binding parameters Ka and Rb; settings: for Ka: interaction of GBCA (1 mM) with HPTS, Hepes/NaCl; for Ka / Rb: T = 25° C., 21.5 MHz, pH = 7.0 ± 0.1; for Rb: relaxivity of the adduct with HPTS at saturation
Procedure: The binding parameters Ka and Rb between the investigated Gd-complexes and the polyarylene additives were calculated by using the well-established Proton Relaxation Enhancement (PRE) technique.
This method consists in measuring the variation in the longitudinal proton Relaxation Rates (R1=1/T1) of the paramagnetic solutions upon increasing the concentration of the interacting substrate. By this method, the binding parameters Ka (the affinity constant) and Rb (the relaxivity of the resulting adducts at saturation) can be determined. To this end, solutions of the Gd-complexes (1 mM) were titrated with the polyarylenes compounds and non-hydrophobic reference compounds (in the concentration range 1-40 mM, leading to the saturation of the contrast agent), at 21.5 MHz and 298 K, in Hepes/NaCl buffer solution ([hepes]=3.8 mM, [NaCl]=150 mM) at pH 7.0-7.2.
Relaxation rates were measured on a Stelar SpinMaster Relaxometer (Stelar, Mede, PV, It) operating at 21.5 MHz by means of the inversion recovery method (16 experiments, two scans). The reproducibility of the T data was ±0.5%.
Analysis of data was carried out by using origin 9.0 software.

[4] = 1H NMRD profiles of ProHance free and in the presence of 40 mM HPTS; assay type: physicochemical; settings: 1 mM ProHance with 40 mM HPTS vs ProHance as-such; 298 K; 0.01-70 MHz
Procedure: In order to investigate if the enhancement of the relaxivity is maintained at different magnetic field strength, the proton 1/T1 NMRD profiles were measured at 298 K on 1 mM ProHance solutions in the absence and in the presence of 40 mM HPTS. Measurements were carried out on a fast field-cycling Stelar relaxometer over a continuum of magnetic field strengths from 0.00024 to 0.47 T (corresponding to 0.01-20 MHz proton Larmor Frequency). The relaxometer operates under computer control with an absolute uncertainty in 1/T1 of ±0.1%. Additional data points in the range 21.5-70 MHz were obtained on the Stelar SpinMaster relaxometer. The concentration of the solutions used for the relaxometric characterization was determined according to a previously reported relaxometric method (Arena, F. et al, Bioconjugate Chem. 2011, 22, 2625-2635).
The analysis provides the evolution of the relaxivity of the two species as a function of the magnetic field.

[5] = tested on: TS/A breast cancer cells transplanted on Balb/c mice; settings: T1w MRI at 7.1T, injection of 0.15 mmol/Kg ProHance alone or with 0.45 mmol/Kg HPTS
Procedure: Mice were injected with 0.15 mmoles/kg of ProHance e 0.45 mmoles/kg of HPTS (corresponding to 150-220 μL for 20-30 g mice).
In vivo experiments were carried out on xenograpt murine models of cancer.
Female 10-12 weeks Balb/c mice (Charles River Laboratories, Calco, Italy) were inoculated subcutaneously in the flank with 0.1 mL of a suspension containing 5×10^5 TS/A mammary breast cancer cell lines (Nanni P. et al. Clin. Exp. Metastasis 1983, 1, 373-380).
For MRI acquisition, mice were anesthetized by intramuscular injection of a mixture of 20 mg/kg tiletamine/zolazepam (Zoletil 100, Virbac, Milan, Italy) 20 mg/kg plus 5 mg/kg xylazine (Rompun; Bayer, Milan, Italy). A permanent vein access was obtained by inserting a PE10 catheter into the tail vein.
MR images have been acquired, pre and post injection of GBCA, at 7.1T by using Bruker Avance 300 spectrometer equipped with a Micro 2.5 microimaging probe. Mice were injected with 0.15 mmol/Kg of ProHance followed (after 1 h when the wash-out of the GBCA was considered complete) by the injection of a mixture of ProHance and HPTS (0.15 mmol/Kg ProHance and 0.45 mmol/Kg HPTS).
Tumor volume and morphology were determined by multislices anatomical T2w images. A ROI was manually drawn and the slice volume was calculated. […]

`O=S(=O)(O)c1cccc2c(S(=O)(=O)O)cccc12` [1,5 NDS, 1,5 Naphthalene disulphonic acid] showed a Rb/r1p [1] of 1.4, a Ka [1] of 45.5 M⁻¹ and a Rb [1] of 6.3 mM⁻¹ s⁻¹.
In the case of `O=S(=O)(O)c1ccc2cc(S(=O)(=O)O)ccc2c1` [2,6 NDS, 2,6 Naphthalene disulphonic acid], the Rb/r1p [1] is reported as 1.2, the Ka [1] is reported as 94.4 M⁻¹ and the Rb [1] is reported as 5.4 mM⁻¹ s⁻¹.
Work on `Nc1cc(S(=O)(=O)O)c2ccc3c(S(=O)(=O)O)cc(S(=O)(=O)O)c4ccc1c2c43` [APTS, 8-Aminopyrene-1,3,6 trisulfonic acid] yielded a Rb/r1p [1] of 1.6, a Ka [1] of 319 M⁻¹ and a Rb [1] of 7.6 mM⁻¹ s⁻¹.
With `O=C(O)COc1cc(S(=O)(=O)O)c2ccc3c(S(=O)(=O)O)cc(S(=O)(=O)O)c4ccc1c2c43` [CMPTS, 8-Carboxymethoxypyrene-1,3,6-trisulfonic acid] the Rb/r1p [1] was 1.8, the Ka [1] was 94.2 M⁻¹ and the Rb [1] was 8.5 mM⁻¹ s⁻¹.
For `O=C(O)CN1CCN(CC(=O)O)CCN(CC(=O)O)CCN(CC(=O)O)CC1` [Dotarem], the r1p [2] was 4.2 mM⁻¹ s⁻¹, the Ka [3] was 174 M⁻¹ and the Rb [3] was 7.4 mM⁻¹ s⁻¹.
In the case of `O=C(O)CN1CCN(CC(=O)O)CCN(C(CO)C(O)CO)CCN(CC(=O)O)CC1` (stereo not shown) [Gadovist, Gadobutrol], the r1p [2] is reported as 5.0 mM⁻¹ s⁻¹, the Ka [3] is reported as 1157 M⁻¹ and the Rb [3] is reported as 7.9 mM⁻¹ s⁻¹.
With `O=C([O-])CN1CCNCCN(CC(=O)[O-])CCN(CC(=O)[O-])CC1.[Gd+3]` [Gd-DO3A] the r1p [2] was 6.2 mM⁻¹ s⁻¹, the Ka [3] was 246 M⁻¹ and the Rb [3] was 9.5 mM⁻¹ s⁻¹.
With `O=S(=O)(O)c1ccc(O)cc1` [HBSA, 4-Hydroxybenzenesulfonic acid] the Ka [1] was “No binding; also recorded: No interaction”.
For `O=S(=O)(O)c1cc(S(=O)(=O)O)c2ccc3c(O)cc(O)c4ccc1c2c43` [HPDS, 6,8-Dihydroxypyrene-1,3-disulfonic acid], the Rb/r1p [1] was 2.4, the Ka [1] was 124 M⁻¹ and the Rb [1] was 10.9 mM⁻¹ s⁻¹.
Work on `O=S(=O)(O)c1cc(O)c2ccc3c(S(=O)(=O)O)cc(S(=O)(=O)O)c4ccc1c2c34` [HPTS, 8-Hydroxypyrene-1,3,6-trisulfonic acid] yielded a Rb/r1p [1] of 1.5, a Ka [1] of 628 M⁻¹ and a Rb [1] of 6.9 mM⁻¹ s⁻¹.
`COc1cc(S(=O)(=O)O)c2ccc3c(S(=O)(=O)O)cc(S(=O)(=O)O)c4ccc1c2c43` [MPTS, 8-Methoxy-1,3,6 pyrene trisulfonic acid] gave a Rb/r1p [1] of 1.4, a Ka [1] of 514 M⁻¹ and a Rb [1] of 6.5 mM⁻¹ s⁻¹.
With `CNC[C@H](O)[C@@H](O)[C@H](O)[C@H](O)CO.CNC[C@H](O)[C@@H](O)[C@H](O)[C@H](O)CO.O=C([O-])CN(CCN(CC(=O)[O-])CC(=O)O)CCN(CC(=O)[O-])CC(=O)O.[Gd+3]` [Magnevist] the Ka [3] was “no binding is observed; also recorded: No interaction”.
With `CNC[C@H](O)[C@@H](O)[C@H](O)[C@H](O)CO.CNC[C@H](O)[C@@H](O)[C@H](O)[C@H](O)CO.O=C([O-])CN(CCN(CC(=O)[O-])CC(=O)O)CCN(CC(=O)O)C(COCc1ccccc1)C(=O)[O-].[Gd+3]` (stereo not shown) [MultiHance, gadobenate dimeglumine] the Ka [3] was “no binding is observed; also recorded: No interaction”.
For `CNC(=O)CN(CCN(CCN(CC(=O)[O-])CC(=O)NC)CC(=O)[O-])CC(=O)[O-].[Gd+3]` [Omniscan], the Ka [3] was “no binding is observed; also recorded: No interaction”.
`O=S(=O)(O)c1cc(S(=O)(=O)O)c2ccc3c(S(=O)(=O)O)cc(S(=O)(=O)O)c4ccc1c2c43` [PTS, 1,3,6,8 Pyrenetetrasulfonic acid] showed a Rb/r1p [1] of 1.6, a Ka [1] of 177 M⁻¹ and a Rb [1] of 7.3 mM⁻¹ s⁻¹.
In the case of `CC(O)CN1CCN(CC(=O)O)CCN(CC(=O)O)CCN(CC(=O)O)CC1` (stereo not shown) [ProHance], the r1p [2] is reported as 4.6 mM⁻¹ s⁻¹, the “improvement of the relaxivity as a function of the magnetic field (NMRD profile)” value [4] is reported as “maintained over the whole range of magnetic field” and the “mean signal enhancement, Enh %, in the tumor ROI” value [5] is reported as 53%. For the same compound, the “improvement of the relaxivity shown by the free complex” value (“improvement … by the free complex” below) ([3]; 20% of the complex in the form of a non-covalent adduct with HPTS) was “about 10%”, the “improvement … by the free complex” value ([3]; 60% of the complex in the form of a non-covalent adduct with HPTS) was roughly 30% and the “improvement … by the free complex” value ([3]; 99% of the complex in the form of a non-covalent adduct with HPTS) was roughly 50%. For the same compound, the Ka [3] was 628 M⁻¹, the “improvement of relaxivity in comparison with Prohance as-such” value ([3]; molar ratio 1:3 of Prohance to HTPS) was “about 30%” and the Rb [3] was 6.9 mM⁻¹ s⁻¹.
